Source: patent publication US9403814B2, “Crystalline forms of dihydropyrimidine derivatives” (SUNSHINE LAKE PHARMA CO., LTD., priority 2012, dated 2016)
Where a name gives a salt, the structure may show the parent alone.

Assays:
[1] = Solubility test: dissolution of crystalline form sample in water; type: physicochemical; conditions: 25±5° C.; for dissolubility of samples (300 mg/mL): about 600 mg sample in water (2 mL), ultrasonic vibration, visual check for solute particles; for solubility in water (conclusion from Table 1): 300 mg/mL
Method: About 600 mg of a crystalline form sample was added to water (2 mL). The dissolution of the sample was obtained with ultrasonic vibration at 25±5° C. No visible solute particles mean that the sample has a complete dissolution in water; whereas visible solute particles mean that the sample precipitates in water.

[2] = Stability test: impurity content by HPLC under storage conditions; type: physicochemical; conditions: for stability under the experimental conditions (conclusion from Tables 2 and 3): high temperature, accelerated, mediated, high humidity and illumination conditions, up to 30 days
Method: A crystalline form sample was put in a watch glass in the form of a thin layer of ≦5 mm. The stability test was conducted under different conditions: high temperature (60±2° C.) for 30 days, accelerated condition (40±2° C., 75%±5% humidity) for 30 days, mediated condition (30±2° C., 65%±5% humidity) for 30 days, high humidity (25±2° C., 90%±5%) for 10 days and illumination condition (visible light 4500 lx±500 lx with ultraviolet light not lower than 0.7 W·h/m^2, 25±2° C., 60%±5% relative humidity) for 10 days respectively. The impurity contents of crystalline forms B and C were determined at various time points (0, 10, 20, and 30 days) by high performance liquid chromatography (HPLC) with peak area normalization.

[3] = accelerated condition (40±2° C., 75%±5% humidity), 0 day
[4] = accelerated condition (40±2° C., 75%±5% humidity), 10 days
[5] = accelerated condition (40±2° C., 75%±5% humidity), 20 days
[6] = accelerated condition (40±2° C., 75%±5% humidity), 30 days
[7] = high humidity (25±2° C., 90%±5%), 0 day
[8] = high humidity (25±2° C., 90%±5%), 10 days
[9] = high temperature (60±2° C.), 0 day
[10] = high temperature (60±2° C.), 10 days
[11] = high temperature (60±2° C.), 20 days
[12] = high temperature (60±2° C.), 30 days
[13] = illumination condition (visible light 4500 lx±500 lx with UV, 25±2° C., 60%±5% relative humidity), 0 day
[14] = illumination condition (visible light 4500 lx±500 lx with UV, 25±2° C., 60%±5% relative humidity), 10 days
[15] = mediated condition (30±2° C., 65%±5% humidity), 0 day
[16] = mediated condition (30±2° C., 65%±5% humidity), 10 days
[17] = mediated condition (30±2° C., 65%±5% humidity), 20 days
[18] = mediated condition (30±2° C., 65%±5% humidity), 30 days

Row | SMILES | dissolubility of samples (300 mg/mL) [1] | solubility in water (conclusion from Table 1) [1] | impurity content by HPLC [2, 3] | impurity content by HPLC [2, 4] | impurity content by HPLC [2, 5] | impurity content by HPLC [2, 6] | impurity content by HPLC [2, 7] | impurity content by HPLC [2, 8] | impurity content by HPLC [2, 9] | impurity content by HPLC [2, 10] | impurity content by HPLC [2, 11] | impurity content by HPLC [2, 12] | stability under the experimental conditions (conclusion from Tables 2 and 3) [2] | impurity content by HPLC [2, 13] | impurity content by HPLC [2, 14] | impurity content by HPLC [2, 15] | impurity content by HPLC [2, 16] | impurity content by HPLC [2, 17] | impurity content by HPLC [2, 18]
1 | CCOC(=O)C1=C(CN2CCOCC2)NC(c2nccs2)=NC1c1ccc(F)cc1Br (single isomer, unassigned) [form B, 6[R,S]-ethyl 6-(2-bromo-4-fluorophenyl)-4-(morpholinomethyl)-2-(thiazol-2-yl)-1,6-dihydro pyrimidine-5-carboxylate mesylate] | completely dissolved, some sample precipitated | good solubility in water | 0.06% | 0.09% | 0.08% | 0.10% | 0.06% | 0.06% | 0.06% | 0.13% | 0.20% | 0.24% | did not degrade or change | 0.06% | 0.12% | 0.06% | 0.10% | 0.13% | 0.12%
2 | CCOC(=O)C1=C(CN2CCOCC2)NC(c2nccs2)=NC1c1ccc(F)cc1Br (single isomer, unassigned) [form C, 6[R,S]-ethyl 6-(2-bromo-4-fluorophenyl)-4-(morpholinomethyl)-2-(thiazol-2-yl)-1,6-dihydro pyrimidine-5-carboxylate mesylate] | completely dissolved, no sample precipitated | good solubility in water | 0.03% | 0.04% | 0.04% | 0.04% | 0.03% | 0.04% | 0.03% | 0.06% | 0.03% | 0.03% | did not degrade or change | 0.03% | 0.03% | 0.03% | 0.03% | 0.03% | 0.03%
